# PubChem BioAssay AID254 (DTP/NCI, 2004)
# Values joined by “and” are separate entries in the source; they are usually repeats but may differ in a detail not shown here. Identical values can stand only once. Toxic doses and inconclusive results are not listed.
# Test system: L1210 leukemia iv in BDF1 mice, survival T/C
# Experiment: NCI In Vivo Anticancer Drug Screen. Data for tumor model L1210 Leukemia (intravenous) in B6D2F1 (BDF1) mice
# Details: higher = longer survival
# Protocol: The antitumor activity of compounds was measured in mice bearing transplantable tumors. Survival or tumor size were measured and the results are expressed as the measurement made in the treated group (T) divided by the measurement made in the vehicle treated control group (C). The tumor model used in this assay is L1210 Leukemia (intravenous) in B6D2F1 (BDF1) mice
structure (smiles),measurement,setting,value
CN(C)/N=N/c1nc[nH]c1C(N)=O,T/C,"endpoint: mean survival time, dose: 42.0 mg/kg/injection, schedule: Q01DX001 (ip), vehicle: carboxymethylcellulose (CMC)",85 % of control and 86 % of control
same,T/C,"endpoint: mean survival time, dose: 83.0 mg/kg/injection, schedule: Q01DX001 (ip), vehicle: carboxymethylcellulose (CMC)",97 % of control and 98 % of control
same,T/C,"endpoint: mean survival time, dose: 170.0 mg/kg/injection, schedule: Q01DX001 (ip), vehicle: carboxymethylcellulose (CMC)",114 % of control and 115 % of control
same,T/C,"endpoint: mean survival time, dose: 180.0 mg/kg/injection, schedule: Q01DX001 (ip), vehicle: carboxymethylcellulose (CMC)",113 % of control
same,T/C,"endpoint: mean survival time, dose: 600.0 mg/kg/injection, schedule: Q01DX001 (ip), vehicle: carboxymethylcellulose (CMC)",161 % of control
same,T/C,"endpoint: mean survival time, dose: 900.0 mg/kg/injection, schedule: Q01DX001 (ip), vehicle: carboxymethylcellulose (CMC)",193 % of control
same,T/C,"endpoint: mean survival time, dose: 1012.0 mg/kg/injection, schedule: Q01DX001 (ip), vehicle: carboxymethylcellulose (CMC)",183 % of control and 184 % of control
same,T/C,"endpoint: mean survival time, dose: 1350.0 mg/kg/injection, schedule: Q01DX001 (ip), vehicle: carboxymethylcellulose (CMC)",113 % of control
O=NN(CCCl)C(=O)NC1CCS(=O)(=O)C1 (centres undefined) (tested in a mixture with another compound),T/C,"endpoint: mean survival time, dose: 7.0 mg/kg/injection, schedule: Q01DX001 (ip), vehicle: other",267 % of control
same,T/C,"endpoint: mean survival time, dose: 11.0 mg/kg/injection, schedule: Q01DX001 (ip), vehicle: other",239 % of control
same,T/C,"endpoint: mean survival time, dose: 14.0 mg/kg/injection, schedule: Q01DX001 (oral), vehicle: other",276 % of control
same,T/C,"endpoint: mean survival time, dose: 16.0 mg/kg/injection, schedule: Q01DX001 (ip), vehicle: other",281 % of control
same,T/C,"endpoint: mean survival time, dose: 22.0 mg/kg/injection, schedule: Q01DX001 (oral), vehicle: other",474 % of control
same,T/C,"endpoint: mean survival time, dose: 24.0 mg/kg/injection, schedule: Q01DX001 (ip), vehicle: other",281 % of control
same,T/C,"endpoint: mean survival time, dose: 32.0 mg/kg/injection, schedule: Q01DX001 (oral), vehicle: other",495 % of control
same,T/C,"endpoint: mean survival time, dose: 36.0 mg/kg/injection, schedule: Q01DX001 (ip), vehicle: other",232 % of control
same,T/C,"endpoint: mean survival time, dose: 48.0 mg/kg/injection, schedule: Q01DX001 (oral), vehicle: other",253 % of control
same,T/C,"endpoint: mean survival time, dose: 72.0 mg/kg/injection, schedule: Q01DX001 (oral), vehicle: other",213 % of control
O=P1(N(CCCl)CCCl)NCCCO1 (centres undefined),T/C,"endpoint: mean survival time, dose: 28.0 mg/kg/injection, schedule: Q01DX001 (ip), vehicle: saline",106 % of control and 109 % of control
same,T/C,"endpoint: mean survival time, dose: 60.0 mg/kg/injection, schedule: Q01DX001 (ip), vehicle: saline",155 % of control and 165 % of control
same,T/C,"endpoint: mean survival time, dose: 64.0 mg/kg/injection, schedule: Q01DX001 (ip), vehicle: saline",169 % of control
same,T/C,"endpoint: mean survival time, dose: 75.0 mg/kg/injection, schedule: Q01DX001 (ip), vehicle: saline",154 % of control and 164 % of control and 171 % of control
same,T/C,"endpoint: mean survival time, dose: 80.0 mg/kg/injection, schedule: Q01DX001 (ip), vehicle: saline",158 % of control and 165 % of control
same,T/C,"endpoint: mean survival time, dose: 80.0 mg/kg/injection, schedule: Q04DX004 (ip), vehicle: saline",206 % of control
same,T/C,"endpoint: mean survival time, dose: 83.0 mg/kg/injection, schedule: Q01DX001 (ip), vehicle: saline",170 % of control
same,T/C,"endpoint: mean survival time, dose: 118.0 mg/kg/injection, schedule: Q01DX001 (ip), vehicle: saline",162 % of control and 202 % of control
same,T/C,"endpoint: mean survival time, dose: 120.0 mg/kg/injection, schedule: Q04DX004 (ip), vehicle: saline",285 % of control
same,T/C,"endpoint: mean survival time, dose: 225.0 mg/kg/injection, schedule: Q01DX001 (ip), vehicle: saline",390 % of control and 290 % of control and 304 % of control
same,T/C,"endpoint: mean survival time, dose: 234.0 mg/kg/injection, schedule: Q01DX001 (ip), vehicle: saline",522 % of control and 302 % of control
same,T/C,"endpoint: mean survival time, dose: 468.0 mg/kg/injection, schedule: Q01DX001 (ip), vehicle: saline",500 % of control
O=c1[nH]c(=O)n(C2CC(O)C(CO)O2)cc1F (centres undefined),T/C,"endpoint: mean survival time, dose: 400.0 mg/kg/injection, schedule: Q01DX001 (ip), vehicle: saline",122 % of control
O=NN(CCCl)C(=O)N[C@H]1CCCC[C@@H]1Cl,T/C,"endpoint: mean survival time, dose: 5.0 mg/kg/injection, schedule: Q01DX001 (ip), vehicle: other",108 % of control and 121 % of control
same,T/C,"endpoint: mean survival time, dose: 15.0 mg/kg/injection, schedule: Q01DX001 (ip), vehicle: other",153 % of control and 160 % of control
same,T/C,"endpoint: mean survival time, dose: 20.0 mg/kg/injection, schedule: Q04DX004 (ip), vehicle: other",319 % of control
same,T/C,"endpoint: mean survival time, dose: 30.0 mg/kg/injection, schedule: Q01DX001 (ip), vehicle: other",514 % of control
same,T/C,"endpoint: mean survival time, dose: 30.0 mg/kg/injection, schedule: Q04DX004 (ip), vehicle: other",95 % of control
same,T/C,"endpoint: mean survival time, dose: 41.0 mg/kg/injection, schedule: Q01DX001 (ip), vehicle: other",558 % of control and 564 % of control
same,T/C,"endpoint: mean survival time, dose: 45.0 mg/kg/injection, schedule: Q01DX001 (ip), vehicle: other",819 % of control
same,T/C,"endpoint: mean survival time, dose: 45.0 mg/kg/injection, schedule: Q04DX004 (ip), vehicle: other",512 % of control
same,T/C,"endpoint: mean survival time, dose: 75.0 mg/kg/injection, schedule: Q01DX001 (ip), vehicle: other",583 % of control and 650 % of control and 652 % of control
same,T/C,"endpoint: mean survival time, dose: 83.0 mg/kg/injection, schedule: Q01DX001 (ip), vehicle: other",376 % of control and 553 % of control
same,T/C,"endpoint: mean survival time, dose: 90.0 mg/kg/injection, schedule: Q01DX001 (ip), vehicle: other",460 % of control
O=NN(CCF)C(=O)NCCCl,T/C,"endpoint: mean survival time, dose: 9.0 mg/kg/injection, schedule: Q01DX001 (ip), vehicle: Klucel (hydroxypropylcellulose) (HPC)",197 % of control and 294 % of control
same,T/C,"endpoint: mean survival time, dose: 14.0 mg/kg/injection, schedule: Q01DX001 (ip), vehicle: Klucel (hydroxypropylcellulose) (HPC)",226 % of control and 270 % of control
same,T/C,"endpoint: mean survival time, dose: 21.0 mg/kg/injection, schedule: Q01DX001 (ip), vehicle: Klucel (hydroxypropylcellulose) (HPC)",342 % of control and 307 % of control
same,T/C,"endpoint: mean survival time, dose: 32.0 mg/kg/injection, schedule: Q01DX001 (ip), vehicle: Klucel (hydroxypropylcellulose) (HPC)",603 % of control and 323 % of control
CC[C@]1(O)C[C@H]2CN(CCc3c([nH]c4ccccc34)[C@@](C(=O)OC)(c3cc4c(cc3OC)N(C=O)[C@H]3[C@@](O)(C(=O)OC)[C@H](OC(C)=O)[C@]5(CC)C=CCN6CC[C@]43[C@@H]65)C2)C1,T/C,"endpoint: mean survival time, dose: 0.32 mg/kg/injection, schedule: Q01DX001 (ip), vehicle: saline",112 % of control
same,T/C,"endpoint: mean survival time, dose: 0.75 mg/kg/injection, schedule: Q01DX001 (ip), vehicle: saline",108 % of control
same,T/C,"endpoint: mean survival time, dose: 1.5 mg/kg/injection, schedule: Q01DX001 (ip), vehicle: saline",114 % of control
same,T/C,"endpoint: mean survival time, dose: 1.6 mg/kg/injection, schedule: Q01DX001 (ip), vehicle: saline",109 % of control
same,T/C,"endpoint: mean survival time, dose: 2.25 mg/kg/injection, schedule: Q01DX001 (ip), vehicle: saline",119 % of control
N[C@@H](Cc1ccc(N(CCCl)CCCl)cc1)C(=O)O,T/C,"endpoint: mean survival time, dose: 0.1 mg/kg/injection, schedule: Q01DX015 (ip), vehicle: carboxymethylcellulose (CMC)",94 % of control and 103 % of control
same,T/C,"endpoint: mean survival time, dose: 0.2 mg/kg/injection, schedule: Q01DX015 (ip), vehicle: carboxymethylcellulose (CMC)",107 % of control and 96 % of control
same,T/C,"endpoint: mean survival time, dose: 0.4 mg/kg/injection, schedule: Q01DX015 (ip), vehicle: carboxymethylcellulose (CMC)",107 % of control and 98 % of control
same,T/C,"endpoint: mean survival time, dose: 0.8 mg/kg/injection, schedule: Q01DX015 (ip), vehicle: carboxymethylcellulose (CMC)",100 % of control and 103 % of control
same,T/C,"endpoint: mean survival time, dose: 1.13 mg/kg/injection, schedule: Q01DX001 (ip), vehicle: carboxymethylcellulose (CMC)",105 % of control
same,T/C,"endpoint: mean survival time, dose: 1.6 mg/kg/injection, schedule: Q01DX015 (ip), vehicle: carboxymethylcellulose (CMC)",107 % of control and 101 % of control
same,T/C,"endpoint: mean survival time, dose: 1.7 mg/kg/injection, schedule: Q01DX001 (ip), vehicle: carboxymethylcellulose (CMC)",95 % of control and 102 % of control
same,T/C,"endpoint: mean survival time, dose: 2.25 mg/kg/injection, schedule: Q01DX001 (ip), vehicle: carboxymethylcellulose (CMC)",109 % of control and 96 % of control
same,T/C,"endpoint: mean survival time, dose: 3.0 mg/kg/injection, schedule: Q01DX001 (ip), vehicle: carboxymethylcellulose (CMC)",106 % of control and 97 % of control
same,T/C,"endpoint: mean survival time, dose: 4.5 mg/kg/injection, schedule: Q01DX001 (ip), vehicle: carboxymethylcellulose (CMC)",105 % of control and 113 % of control
same,T/C,"endpoint: mean survival time, dose: 4.75 mg/kg/injection, schedule: Q01DX001 (ip), vehicle: Klucel (hydroxypropylcellulose) (HPC)",104 % of control and 105 % of control
same,T/C,"endpoint: mean survival time, dose: 7.0 mg/kg/injection, schedule: Q01DX001 (ip), vehicle: carboxymethylcellulose (CMC)",105 % of control
same,T/C,"endpoint: mean survival time, dose: 9.0 mg/kg/injection, schedule: Q01DX001 (ip), vehicle: carboxymethylcellulose (CMC)",155 % of control
same,T/C,"endpoint: mean survival time, dose: 14.0 mg/kg/injection, schedule: Q01DX001 (ip), vehicle: carboxymethylcellulose (CMC)",181 % of control
same,T/C,"endpoint: mean survival time, dose: 14.25 mg/kg/injection, schedule: Q01DX001 (ip), vehicle: Klucel (hydroxypropylcellulose) (HPC)",177 % of control
same,T/C,"endpoint: mean survival time, dose: 15.0 mg/kg/injection, schedule: Q01DX001 (ip), vehicle: saline",163 % of control and 195 % of control
same,T/C,"endpoint: mean survival time, dose: 18.0 mg/kg/injection, schedule: Q01DX001 (ip), vehicle: carboxymethylcellulose (CMC)",190 % of control and 255 % of control
same,T/C,"endpoint: mean survival time, dose: 19.0 mg/kg/injection, schedule: Q01DX001 (ip), vehicle: Klucel (hydroxypropylcellulose) (HPC)",214 % of control and 215 % of control
same,T/C,"endpoint: mean survival time, dose: 23.75 mg/kg/injection, schedule: Q01DX001 (ip), vehicle: Klucel (hydroxypropylcellulose) (HPC)",177 % of control
same,T/C,"endpoint: mean survival time, dose: 29.0 mg/kg/injection, schedule: Q01DX001 (ip), vehicle: carboxymethylcellulose (CMC)",206 % of control
CCCCc1ccc2nc(NC(=O)OC)[nH]c2c1,T/C,"endpoint: median survival time, dose: 30.0 mg/kg/injection, schedule: Q04DX003 (iv), vehicle: saline",100 % of control
same,T/C,"endpoint: median survival time, dose: 40.0 mg/kg/injection, schedule: Q04DX003 (iv), vehicle: saline",110 % of control
same,T/C,"endpoint: median survival time, dose: 50.0 mg/kg/injection, schedule: Q04DX003 (iv), vehicle: saline",113 % of control
